Columns and labels:
[1] = test system: HeLa (cervical cancer); assay: MTT in vitro cytotoxicity assay, HeLa; format: cell-based, human; conditions: Homo sapiens
Procedure: (§1) The synthesized compounds were evaluated for in-vitro cytotoxic activity against various cell lines such as HeLa (cervical cancer), MCF-7 (breast cancer), HL-60 (Human promyelocytic leukemia), HepG2 (Hepatocellular carcinoma) and MCF 12A (normal epithelial cell) by the MTT assay method. […] The relationship between surviving fraction and drug concentration was plotted to obtain the survival curve of all the cancer cell lines HeLa, MCF-7, HL-60 and HepG2. The response parameter calculated was the IC50 values, which responds to the concentration required for 50% inhibition of cell viability. The in-vitro cytotoxic activity of the synthesized compounds is summarized Table 3.
(§2) The target compounds were subjected to in vitro cytotoxicity bioassay. In vitro cytotoxicity was determined using a standard MTT assay with protocol appropriate for the individual test system[29]–[31]. The four human cancer cell lines HeLa, MCF-7, HL-60, HepG2 and MCF-12A were cultured in the MEM medium supplemented with 10% FBS, 1% glutamine and […] gentamicin sulfate in a CO2 incubator in a humidified atmosphere of 5% CO2 and 95% air. The test compounds were prepared prior to the experiment by dissolving in 0.1% DMSO and diluted with medium. The cells were then exposed to different concentrations of drugs ([…]) in the volume of […]. Cells in the control wells received the same volume of medium containing 0.1% DMSO. After 24 h, the medium was removed and cell cultures were incubated with […] MTT reagent (1 mg/ml) for 5 h at 37 °C. The known number of cells ([…]) was incubated in a 5% CO2 incubator at 37 °C in the presence of different concentrations of test compounds. After 48 h of drug incubation, the MTT solution was added in each well and absorbance was recorded at 540 nm by an ELISA reader. The experiment was performed in triplicate. Cell survival was calculated as the percentage of MTT inhibition as % growth inhibition = 100 − (mean OD of individual test Group/Mean OD of each Control Group) × 100.

[2] = test system: HL-60 (Human promyelocytic leukemia); assay: MTT in vitro cytotoxicity assay, HL-60; format: cell-based; conditions: Homo sapiens
Procedure: as §1, §2

[3] = test system: MCF 12A (normal epithelial breast cell line); assay: MTT assay on normal cells, MCF 12A; format: cell-based, human; conditions: normal epithelial breast cell MCF 12A; for IC50: Homo sapiens
Procedure: as §1
The presence of non-halogen substituent along with electron donating substituent seriously jeopardise the anticancer potential. […] To determine the selectivity of these molecules between normal and cancerous cells, the designed compounds were also tested against MCF 12A, a normal epithelial breast cell.
as §2

[4] = test system: MCF-7 (breast cancer); assay: MTT in vitro cytotoxicity assay, MCF-7; format: cell-based, human; conditions: Homo sapiens, MCF7
Procedure: as §1, §2

[5] = target: T1, EGFR-TK (Homo sapiens, UniProt P00533); assay: EGFR tyrosine kinase inhibitory activity (Kinase-Glo Plus luminescence); format: biochemical; conditions: for inhibition at 10 µM: read-out: Percent of Inhibition, EGFR tyrosine kinase; for %i: EGFR-TK percent inhibition as repeated in docking Table 5; for inhibition at 10 µM / Percent of Inhibition, EGFR tyrosine kinase: at 10 µM
T1 construct: 0.2 mg/mL Poly (Glu, Tyr) substrate, 10 mM ATP and EGFR
T1 sequence (P00533 25-1210): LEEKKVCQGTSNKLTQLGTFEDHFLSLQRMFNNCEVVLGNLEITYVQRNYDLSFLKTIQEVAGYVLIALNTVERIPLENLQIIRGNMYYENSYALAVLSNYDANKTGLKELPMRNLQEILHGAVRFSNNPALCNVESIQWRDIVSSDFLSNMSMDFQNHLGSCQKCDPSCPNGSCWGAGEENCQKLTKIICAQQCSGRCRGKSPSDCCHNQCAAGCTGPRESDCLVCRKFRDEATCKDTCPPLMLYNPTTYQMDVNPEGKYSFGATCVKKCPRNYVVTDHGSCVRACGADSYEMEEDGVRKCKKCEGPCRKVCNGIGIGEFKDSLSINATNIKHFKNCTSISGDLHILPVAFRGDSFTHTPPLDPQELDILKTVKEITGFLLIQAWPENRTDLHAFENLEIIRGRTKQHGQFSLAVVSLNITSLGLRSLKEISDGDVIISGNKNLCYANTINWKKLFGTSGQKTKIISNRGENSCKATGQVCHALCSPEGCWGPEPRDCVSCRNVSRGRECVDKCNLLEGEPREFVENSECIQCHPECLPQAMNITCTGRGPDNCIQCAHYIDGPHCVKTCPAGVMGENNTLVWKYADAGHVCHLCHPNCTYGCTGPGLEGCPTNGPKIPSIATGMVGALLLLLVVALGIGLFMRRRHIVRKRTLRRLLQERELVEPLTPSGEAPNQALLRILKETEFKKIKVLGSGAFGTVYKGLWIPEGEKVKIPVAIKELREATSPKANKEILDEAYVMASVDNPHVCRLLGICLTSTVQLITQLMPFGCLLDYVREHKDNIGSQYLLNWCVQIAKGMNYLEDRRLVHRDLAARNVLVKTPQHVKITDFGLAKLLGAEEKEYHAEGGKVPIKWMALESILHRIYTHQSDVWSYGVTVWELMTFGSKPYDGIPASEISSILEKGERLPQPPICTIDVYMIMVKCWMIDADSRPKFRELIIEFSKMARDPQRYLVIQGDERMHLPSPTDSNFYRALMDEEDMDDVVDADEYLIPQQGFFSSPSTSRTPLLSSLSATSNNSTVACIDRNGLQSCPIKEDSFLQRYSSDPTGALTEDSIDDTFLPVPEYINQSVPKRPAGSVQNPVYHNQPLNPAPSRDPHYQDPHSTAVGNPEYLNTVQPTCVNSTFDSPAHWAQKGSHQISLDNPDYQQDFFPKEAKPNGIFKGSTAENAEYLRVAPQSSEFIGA
Procedure: Kinase activity was determined using Kinase-Glo Plus luminescence kinase assay kit, by quantitating the amount of ATP remaining in the solution of kinase reaction. The luminescent signal is correlated with the residual amount present and it was inversely related with kinase activity. The tested compounds were diluted to 100 mM in 10% DMSO, then […] of the dilution was added to a 50 mL reaction. All of the enzymatic reactions were performed at 30 °C for 40 min, 50 mL of reaction mixture contains 10 mM MgCl2, 40 mM Tris, pH 7.4, 0.1 mg/mL BSA, 0.2 mg/mL Poly (Glu, Tyr) substrate, 10 mM ATP and EGFR. Incubate the plate for 5 min at r.t. then add 50 mL of Kinase-GloPlus Luminescence kinase assay to each reaction. ADP-Glo assay kit is the protein kinase assays used to determine IC50 values in which ADP generation was measured as it leads to an increase in luminescence signal. The reaction mixture was incubated in a 96-well plate at 30 °C for 30 min, after the incubation period add 25 mL of ADP-Glo reagent to terminate the assay. Shake the 96-well plate for 30 min at ambient temperature then incubate it, then add 50 mL of kinase detection reagent. Read the 96-well plate using the ADP-Glo Luminescence reader. All the assay components were added to the blank control except the substrate. By removing the blank control value you can obtain the corrected activity for each protein kinase target.

[6] = test system: HepG2 (Hepatocellular carcinoma); assay: MTT in vitro cytotoxicity assay, HepG2; format: cell-based, human; conditions: NA: Not active; for IC50: Homo sapiens
Procedure: as §1, §2

[7] = test system: A549; set-up: method as in PMID 22227214; conditions: read-out: IC50 antiproliferative activity A549; cited from earlier work
[8] = test system: mutant EGFRT790M/L858R; set-up: method as in PMID 22227214; conditions: cited from earlier work
[9] = test system: WT EGFR; set-up: method as in PMID 22227214; conditions: cited from earlier work
[10] = test system: NCIH1975; set-up: method as in PMID 22227214; conditions: read-out: IC50 antiproliferative activity NCIH1975; cited from earlier work
[11] = test system: A431; set-up: method as in PMID 22227214; conditions: read-out: IC50 antiproliferative activity A431; cited from earlier work

Structure (SMILES)	IC50 [1] [µM]	IC50 [2] [µM]	IC50 [3] [µM]	melting point [°C]	IC50 [4] [µM]	inhibition at 10 µM [5] [%]	IC50 [6] [µM]	IC50 [7] [µM]	IC50 [8] [µM]	IC50 [9] [µM]	IC50 [10] [µM]	IC50 [11] [µM]	IC50 MCF 12A [3]	IC50 HepG2 [6]	%i [5] [%]	Percent of Inhibition, EGFR tyrosine kinase [5] [%]
CCOC(=O)C1=C(C)N(c2nc(Nc3cccc(Br)c3)nc(Nc3cccc(Br)c3)n2)C(=S)NC1c1ccccc1O (stereo not shown) [7e, Ethyl 1-(4,6-bis((3-bromophenyl)amino)-1,3,5-triazin-2-yl)-4-(2-hydroxyphenyl)-6-methyl-2-thioxo-1,2,3,4-tetrahydropyrimidine-5-carboxylate]	63.9 ± 0.25	57.4 ± 0.52	89.45 ± 0.45	245 to 247	67.8 ± 0.61	78.5	65.6 ± 0.45									
CC(C)Nc1nc(N/N=C/c2cc(Br)c(O)c(Br)c2O)nc(Nc2ccc(F)cc2)n1 [1a]								7.7 ± 1.3	6.5	25.9	10.5 ± 0.9	8 ± 1.6				
CCOC(=O)C1=C(C)N(c2nc(Nc3cccc(Cl)c3)nc(Nc3cccc(Cl)c3)n2)C(=S)NC1c1ccc(O)cc1 (stereo not shown) [7d, Ethyl 1-(4,6-bis((3-chlorophenyl)amino)-1,3,5-triazin-2-yl)-4-(4-hydroxyphenyl)-6-methyl-2-thioxo-1,2,3,4-tetrahydropyrimidine-5-carboxylate]	51.3 ± 0.32	43.2 ± 0.38		161 to 163	61.3 ± 0.78	74.8	41.4 ± 0.38						non-toxic			
CCOC(=O)C1=C(C)N(c2nc(Nc3ccccc3Cl)nc(Nc3ccccc3Cl)n2)C(=S)NC1c1ccc(OC)cc1 (stereo not shown) [7f, Ethyl 1-(4,6-bis((2-chlorophenyl)amino)-1,3,5-triazin-2-yl)-4-(4-methoxyphenyl)-6-methyl-2-thioxo-1,2,3,4-tetrahydropyrimidine-5-carboxylate]	55.4 ± 0.12	47 ± 0.54	82.14 ± 0.21	91 to 93	64 ± 0.38	81.4	46.5 ± 0.36									
CCOC(=O)C1=C(C)N(c2nc(Nc3ccc(Cl)cc3)nc(Nc3ccc(Cl)cc3)n2)C(=S)NC1c1ccccc1Cl (stereo not shown) [7j, Ethyl 1-(4,6-bis((4-chlorophenyl)amino)-1,3,5-triazin-2-yl)-4-(2-chlorophenyl)-6-methyl-2-thioxo-1,2,3,4-tetrahydropyrimidine-5-carboxylate]	46.2 ± 0.56	39.6 ± 0.78	69.13 ± 0.62	112 to 114	57 ± 0.47	82.4	38.7 ± 0.32									
CCOC(=O)C1=C(C)N(c2nc(Nc3ccccc3)nc(Nc3ccccc3)n2)C(=S)NC1c1ccccc1 (stereo not shown) [7a, Ethyl 1-(4,6-bis(phenylamino)-1,3,5-triazin-2-yl)-6-methyl-4-phenyl-2-thioxo-1,2,3,4-tetrahydropyrimidine-5-carboxylate]	96.6 ± 0.45	83.7 ± 0.27		225 to 227	87.4 ± 0.76	52.4							non-toxic	inactive		
CCOC(=O)C1=C(C)N(c2nc(Nc3ccc([N+](=O)[O-])cc3)nc(Nc3ccc([N+](=O)[O-])cc3)n2)C(=S)NC1c1ccc(C)cc1 (stereo not shown) [7b, Ethyl 1-(4,6-bis((4-nitrophenyl)amino)-1,3,5-triazin-2-yl)-6-methyl-2-thioxo-4-(p-tolyl)-1,2,3,4-tetrahydropyrimidine-5-carboxylate]	81.8 ± 0.34	77.3 ± 0.41		183 to 185	76.5 ± 0.54	56.7	79.3 ± 0.75						non-toxic			
CCOC(=O)C1=C(C)N(c2nc(Nc3ccc([N+](=O)[O-])cc3)nc(Nc3ccc([N+](=O)[O-])cc3)n2)C(=S)NC1c1ccc(Cl)cc1 (stereo not shown) [7h, Ethyl 1-(4,6-bis((4-nitrophenyl)amino)-1,3,5-triazin-2-yl)-4-(4-chlorophenyl)-6-methyl-2-thioxo-1,2,3,4-tetrahydropyrimidine-5-carboxylate]	73.4 ± 0.65	61.4 ± 0.36		146 to 147	71.5 ± 0.46	~69	69.6 ± 0.38						non-toxic		69.1	69.1
CCOC(=O)C1=C(C)N(c2nc(Nc3ccccc3[N+](=O)[O-])nc(Nc3ccccc3[N+](=O)[O-])n2)C(=S)NC1c1cccc(Br)c1 (stereo not shown) [7i, Ethyl 1-(4,6-bis((2-nitrophenyl)amino)-1,3,5-triazin-2-yl)-4-(3-bromophenyl)-6-methyl-2-thioxo-1,2,3,4-tetrahydropyrimidine-5-carboxylate]	76 ± 0.54	66.7 ± 0.67		185 to 186	76.4 ± 0.33	~69	71.6 ± 0.29						non-toxic		69.3	69.3
CNc1nc(N/N=C/c2ccc(O)cc2)nc(Nc2ccccc2)n1 [1f]									30.7	> 100						

From PMC5517562, “Design and discovery of novel monastrol-1,3,5-triazines as potent anti-breast cancer agent via attenuating Epidermal Growth Factor Receptor tyrosine kinase” (Scientific Reports, 2017)
